Results from EP0666841B1, “SUCCINOYLAMINO HYDROXYETHYLAMINO SULFAMIC ACID DERIVATIVES USEFUL AS RETROVIRAL PROTEASE INHIBITORS” (G.D. SEARLE & CO., priority 1992, dated 1994).
Values belong to the compound of their own block, whether it stands above or below them.

Target: T1, HIV protease (Human immunodeficiency virus type 1 group M subtype B, UniProt P04585)
T1 construct: HIV protease is diluted in the assay buffer to a final enzyme concentration of 12.3 nanomolar, based on a molecular weight of 10,780
Assay: HIV protease enzyme assay (fluorescence, peptide substrate)
Assay type: biochemical
Conditions: read-out: IC50 or % inhibition
Description: The compounds of the present invention are effective HIV protease inhibitors. Utilizing an enzyme assay as described below, the compounds set forth in the examples herein disclosed inhibited the HIV enzyme. The preferred compounds of the present invention and their calculated IC50 (inhibiting concentration 50%, i.e., the concentration at which the inhibitor compound reduces enzyme activity by 50%) values are shown in Table 17. The enzyme method is described below. The substrate is 2-Ile-Nle-Phe(p-NO2)-Gln-ArgNH2. The positive control is MVT-101 (Miller, M. et al, Science, 246, 1149 (1989)] The assay conditions are as follows: Assay buffer: 20 mM sodium phosphate, pH 6.4 20% glycerol 1 mM EDTA 1 mM DTT 0.1% CHAPS
The above described substrate is dissolved in DMSO, then diluted 10 fold in assay buffer. Final substrate concentration in the assay is 80 µM.
HIV protease is diluted in the assay buffer to a final enzyme concentration of 12.3 nanomolar, based on a molecular weight of 10,780.
The final concentration of DMSO is 14% and the final concentration of glycerol is 18%. The test compound is dissolved in DMSO and diluted in DMSO to 10x the test concentration; 10µl of the enzyme preparation is added, the materials mixed and then the mixture is incubated at ambient temperature for 15 minutes. The enzyme reaction is initiated by the addition of 40µl of substrate. The increase in fluorescence is monitored at 4 time points (0, 8, 16 and 24 minutes) at ambient temperature. Each assay is carried out in duplicate wells.

Structure (SMILES): CC(C)(C)NS(=O)(=O)N(C[C@@H](O)[C@H](Cc1ccccc1)NC(=O)OCc1ccccc1)C1CCCCC1 [K]
inhibition at 1 µM: 60%

Structure (SMILES): CC(C)CN(C[C@@H](O)[C@H](Cc1ccccc1)NC(=O)OCc1ccccc1)S(=O)(=O)Nc1ccccc1 [E]
IC50 (IC50 values printed in nM): 70 nM

Structure (SMILES): CN(C)S(=O)(=O)N(Cc1ccc(F)cc1)C[C@@H](O)[C@H](Cc1ccccc1)NC(=O)OCc1ccccc1 [B]
inhibition at 10 µM: 55%

Structure (SMILES): CNS(=O)(=O)N(CC(C)C)C[C@@H](O)[C@H](Cc1ccccc1)NC(=O)OCc1ccccc1 [A]
inhibition at 0.1 µM: 29%

Structure (SMILES): CC(C)(C)NS(=O)(=O)N(Cc1ccccc1)C[C@@H](O)[C@H](Cc1ccccc1)NC(=O)OCc1ccccc1 [H]
inhibition at 10 µM: 48%

Results, then the compound that gave them:

inhibition at 0.1 µM: 29%
Structure (SMILES): CC(C)CN(C[C@@H](O)[C@H](Cc1ccccc1)NC(=O)OCc1ccccc1)S(=O)(=O)N1CCN(C)CC1 [D]

inhibition at 0.1 µM: 22%
Structure (SMILES): CC(C)CN(C[C@@H](O)[C@H](Cc1ccccc1)NC(=O)OCc1ccccc1)S(=O)(=O)N1CCCC1 [F]

inhibition at 1 µM: 59%
Structure (SMILES): CC(C)CN(C[C@@H](O)[C@H](Cc1ccccc1)NC(=O)OCc1ccccc1)S(=O)(=O)NC(C)C [C]
